What was measured:
iNOS = assay: Western blot of iNOS in BV2 cells with oxaliplatin-induced inflammatory response; format: cell-based
Protocol: (§1) BV2 cell lines (microglia) were cultured in Dulbecco's modified Eagle's medium (DMEM; GIBCO, Grand Island, NY, USA) containing 10% fetal bovine serum (FBS; GIBCO) and 1% penicillin in a 5% CO2 incubator (37° C.). […]
(§2) Thereafter, proteins were isolated from the cells of each treatment group. […] The isolated proteins were quantified for each subject by using the Bradford (Bio-rad, USA) method using bovine serum albumin (BSA, Sigma, USA), and then 20 μg of the proteins were separated by 10% sodium dodecyl sulfate—polyacrylamide gel electrophoresis (SDS-PAGE) and transferred to polyvinylidene difluoride (PVDF) membranes (membrane, Gendepot, UK). […] The protein identification and quantitative analysis were performed using an imaging system (ChemiDoc XRS+ System, Bio-Rad).
(§3) All of the results were analyzed using the SPSS 21.0 package (SPSS Inc., Chicago, USA), and the experimental results were presented as the mean±standard deviation values. Statistical significance was validated using one-way analysis of variance (ANOVA) and then analyzed by Fisher's LSD test, and the significance probability value (p-value) was recognized only when p<0.05 and p<0.01.

p-NF-κB = assay: Western blot of p-NF-κB in BV2 cells with oxaliplatin-induced inflammatory response; format: cell-based
Protocol: as §1, §2, §3

p-ERK MAPK = assay: Western blot of p-ERK in BV2 cells with oxaliplatin-induced inflammatory response; format: cell-based
Protocol: as §1, §2, §3

[1] = test system: paclitaxel-induced neuropathic pain animal models; assay: Cold allodynia (acetone test) in paclitaxel-induced neuropathic pain animal models; format: in vivo, c57/bl6 male mice; settings: 10 mg/kg oral, 1 hour after administration, day 14 after first paclitaxel injection, acetone to rear paws
Protocol: Paclitaxel (Sigma-Aldrich) dissolved in a 1:1 solution of Cremophor EL and ethanol at 6 mg/mL was diluted to a concentration of 0.2 mg/mL, and 2 mg/kg of the diluent was intraperitoneally administered to ten 6-week-old c57/bl6 male mice four times. Injections were conducted on days 0, 2, 4, and 6 at intervals of every other day. A significant pain was observed from about 10 days after the first injection. In the paclitaxel-induced neuropathic pain animal models, the response occurring after about 20 μL of acetone was applied to both rear paws of the animal models to cause cold allodynia was observed and recorded for about 15 seconds. The behaviors of withdrawal, shaking, and licking of the paws were observed and recorded. A total of three repeated trials were performed, and the average number of behaviors recorded was checked. On the 14th day after the first injection of paclitaxel, animal models showing a statistically significant level of pain were divided into a drug group administered 10 mg/kg of syringaresinol (syringaresinol, n=5) and a control group orally administered 0.06% Tween 80 (vehicle, n=5), and then were administered the corresponding drugs to thereby cause cold allodynia after 1 hour.

[2] = test system: peripheral nerve injury (PNL)-induced neuropathic pain animal models; assay: Mechanical pain (von Frey filament) in peripheral nerve injury (partial sciatic nerve ligation, PNL)-induced neuropathic pain models; format: in vivo, c57/bl6 male mice; settings: 10 mg/kg oral, PNL mice
Protocol: (§4) The behavior of withdrawal to a stimulus using a 0.4 g von Frey filament (Touch test 3.61, Stoelting, USA), which causes mechanical allodynia in the oxaliplatin-induced neuropathic pain animal models, was recorded and observed. To measure the withdrawal response of the paws in the animal models, the animals were put in a transparent acrylic box (7 cm×10 cm) placed on a wire mesh with a grid size of 5 mm and given time to acclimate to the environment. After about 1 hour, the acclimation of the mice was checked, and the medial part of the affected paw was stimulated with the quantified von Frey filament through a wire mesh grid. A total of 10 stimulations sufficient to slightly bend the von Frey filament were given at intervals of 20 seconds, and the number of withdrawals was measured.
After twelve 5-week-old c57/bl6 male mice were respiratory anesthetized with 2.5% isoflurane, the skin on the posterior side of the right hip joint was shaved and incised, and then the sciatic nerve between the biceps femoris was found and confirmed. Thereafter, the […] was penetrated and ligated by a 7 m/m (⅜) silk thread, and then the cut skin was sutured. […]

[3] = test system: oxaliplatin-induced neuropathic pain animal models; assay: Mechanical allodynia (von Frey filament) in oxaliplatin-induced neuropathic pain animal models; format: in vivo, c57/bl6 male mice; settings: 10 mg/kg oral, 1 hour after administration, day 3 after oxaliplatin injection, 0.4 g von Frey filament
Protocol: (§5) Oxaliplatin (Sigma-Aldrich) dissolved in a 5% glucose solution to 2 mg/mL was single-intraperitoneally administered at 6 mg/kg to twelve 5-week-old c57/bl6 male mice. Significant pain was observed from about 3 days after the first injection.
as §4, with “measured. […]” for “measured.”

[4] = test system: oxaliplatin-induced neuropathic pain animal models; assay: Cold allodynia (acetone test) in oxaliplatin-induced neuropathic pain animal models; format: in vivo, c57/bl6 male mice; settings: 10 mg/kg oral, 1 hour after administration, day 3 after oxaliplatin injection, acetone to rear paws
Protocol: In the paclitaxel-induced neuropathic pain animal models, the response occurring after about 20 μL of acetone was applied to both rear paws of the animal models to cause cold allodynia was observed and recorded for about 15 seconds. The behaviors of withdrawal, shaking, and licking of the paws were observed and recorded. A total of three repeated trials were performed, and the average number of behaviors recorded was checked.
as §5
Cold allodynia was caused in the oxaliplatin-induced neuropathic pain animal models by way of the method in Example 2.
On the 3rd day after the oxaliplatin injection, animal models showing a statistically significant level of pain were divided into a drug group administered 10 mg/kg syringaresinol (syringaresinol, n=6) and a control group orally administered 0.06% Tween 80 (vehicle, n=6), and then were administered the corresponding drugs to thereby cause cold allodynia and mechanical allodynia after 1 hour.

[5] = BV2 cells stimulated with 1 μg/mL oxaliplatin for 3 hours, versus normal control
[6] = BV2 cells, syringaresinol 10 μg/mL and 100 μg/mL for 1 hour, then 1 μg/mL oxaliplatin for 3 hours

| Compound | protein expression of iNOS (iNOS; [5]) | protein expression level of p-NF-κB (p-NF-κB; [5]) | protein expression level of p-ERK MAPK (p-ERK MAPK; [5]) | cold allodynia compared with the control group (vehicle) [1] | oxaliplatin-induced increase of iNOS protein expression (iNOS; [6]) | mechanical pain compared with the control group (vehicle) [2] | oxaliplatin-induced increase of p-NF-κB protein expression (p-NF-κB; [6]) | mechanical allodynia compared with the control group (vehicle) [3] | cold allodynia compared with the control group (vehicle) [4] | oxaliplatin-induced increase of p-ERK MAPK protein expression (p-ERK MAPK; [6]) |
| --- | --- | --- | --- | --- | --- | --- | --- | --- | --- | --- |
| O=C1[O][Pt]2([NH][C@@H]3CCCC[C@H]3[NH]2)[O]C1=O [oxaliplatin, reference compound] | significantly increased | significantly increased | significantly increased |  |  |  |  |  |  |  |
| COc1cc(C2OCC3C(c4cc(OC)c(O)c(OC)c4)OCC23)cc(OC)c1O (stereo not shown) [syringaresinol] |  |  |  | mitigated | significantly inhibited | significantly mitigated | significantly inhibited | mitigated | mitigated | significantly inhibited |
